Results reported in publication PMC4099323, “Inhibition of Catalase by Tea Catechins in Free and Cellular State: A Biophysical Approach” (PLoS ONE, 2014).

Assays:
[1] = biological target: human dihydrofolate reductase (DHFR); design: method as in PMID 20054477; details: fluorescence quenching; cited from earlier work
[2] = biological target: T1, Catalase (from bovine liver) (Bos taurus, UniProt P00432); assay: Isothermal titration calorimetry of catechins binding to catalase; details: 25°C; for ΔG / ΔH / ΔS: ITC; for ΔG: calculated from the average values of ΔH; for ΔH / ΔS: directly extracted from the experiment; for Kd: one-site binding model, from ΔG = −RT ln K, read-out: binding constant with catalase (ITC) (converted)
T1 construct: Catalase (from bovine liver); purchased Sigma-Aldrich, St. Louis, MO, USA; host or cells: bovine liver
T1 sequence (P00432 2-527 limits assumed): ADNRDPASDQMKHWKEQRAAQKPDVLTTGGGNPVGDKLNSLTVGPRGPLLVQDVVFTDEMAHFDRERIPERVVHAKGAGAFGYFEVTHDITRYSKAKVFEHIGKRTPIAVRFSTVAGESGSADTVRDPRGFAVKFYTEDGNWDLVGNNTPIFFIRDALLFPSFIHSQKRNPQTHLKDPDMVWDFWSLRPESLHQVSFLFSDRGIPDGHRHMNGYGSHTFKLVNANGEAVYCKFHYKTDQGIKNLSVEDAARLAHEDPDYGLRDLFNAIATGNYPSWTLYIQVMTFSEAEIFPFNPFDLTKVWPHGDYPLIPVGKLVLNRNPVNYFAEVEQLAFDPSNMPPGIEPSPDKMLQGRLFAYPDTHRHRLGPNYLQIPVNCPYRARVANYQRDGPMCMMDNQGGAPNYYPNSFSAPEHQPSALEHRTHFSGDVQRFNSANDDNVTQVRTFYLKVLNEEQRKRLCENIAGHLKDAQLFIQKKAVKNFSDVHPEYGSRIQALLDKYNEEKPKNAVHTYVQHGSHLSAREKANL
Protocol: The energetics of the binding of catechins to catalase was studied by ITC using a MicroCal ITC200, (Northampton, MA, USA). All solutions were degassed under vacuum (140 mbar, 10 min) on the MicroCal’s Thermovac unit to eliminate air bubble formation inside the calorimeter cell. Briefly, the calorimeter syringe was filled with a concentrated solution of catechins (10 µM each). Successive injections of this solution into 1 µM solution of catalase in the calorimeter cell were effected from the rotating syringe with constant stirring of the solution. The titration and analysis were performed through Origin 7 software provided with the unit.
ITC directly measures the heat released during a chemical reaction. ITC can reveal the stoichiometry, enthalpy free energy, and entropy changes that occur over the course of a reaction, [46]. Data obtained from the titration are presented by the series of peaks corresponding to each injection. Usually, this representation is transformed into the apparent heat change between two injections as a function of the titrant ratio by means of integration of power differential with regard to time. ITC has been used mainly to quantify interactions in various biochemical systems [47]–[49]. ITC has been used in the present study to determine binding affinity and other thermodynamic parameters of catechins-catalase interaction. Representative isothermal calorimetric heat profiles for the binding of catechins-catalase interaction, at physiological pH and 25°C are shown in Figure 4 (A–D). The data were corrected for the heat of dilution of catechins, which was determined in a separate set of experiments under identical conditions. The titration and analysis were performed using one-site binding model through Origin 7 software provided with the unit. From Figure 4 it is observed that the titration of catalase with all the four catechins yield negative heat deflections. EC, EGC, ECG, and EGCG bind to catalase with binding constants 2.13×10^5, 1.92×10^5, 6.36×10^5, and 8.19×10^5 M^−1, respectively, as determined by the following equation: ΔG = −RT ln K, where ΔG is the free energy, R and T are the gas constant and temperature, respectively, K is the binding constant.

[3] = biological target: T1, Catalase (from bovine liver); assay: Fluorimetric titration: quenching of catalase fluorescence by catechins; format: binding; details: double logarithmic plot, 25°C; for Kd: pH 7.4, λex 280 nm, read-out: binding constant K with catalase (fluorimetric) (converted)
Protocol: Fluorescence spectra were recorded using a Perkin Elmer fluorescence spectrophotometer (LS-55) equipped with 150 W Xenon flash lamp and using fluorescence-free quartz cell of 1 cm path length. The widths of excitation and emission slits were set to 5 nm, and scan speed (100 nm/min), excitation voltage were kept constant for each data set. Quantitative analysis of the potential interaction between catechins and catalase was performed by the fluorimetric titration technique. Briefly, solution of catalase (5×10^−7 M, as calculated using molar extinction coefficient of 3.24×10^5 M^−1 s^−1 at 405 nm for catalase) in 50 mM phosphate buffer of pH 7.4 was titrated in cuvette by successive additions of individual catechin solution aliquots from a stock of 5×10^−7 M. Fluorescence emission spectra were recorded in the wavelength range of 290–450 nm upon excitation at 280 nm when catalase samples were titrated with catechins. All experiments were carried out at room temperature. Fluorescence intensity was measured at 340 nm of protein emission spectra. Fluorescence spectra of individual catechins in buffer were recorded as blanks under the same experimental conditions and subtracted from the corresponding sample to correct the fluorescence background.
The binding constants and the number of binding sites involved were calculated according to the relation: log (F0–F)/F = log K+n log [Q], where K is the binding constant and n is the number of binding sites, F0 is the fluorescence intensity of free catalase, F is the consecutive fluorescence on addition of catechins, and [Q] is the concentration of the quencher (here catechins). A plot of log (F0– F)/F and log [Q] was used to determine the values of K and n from the intercept and the slope respectively (Figure 3 A–D).

[4] = biological target: T1, Catalase (from bovine liver); assay: Circular dichroism: catechin-induced conformational change in catalase; details: catalase 1 µM, ligands 3 µM each, 25°C
Protocol: All the CD experiments were carried out on a Jasco-815 automatic spectropolarimeter (Jasco International Co., Ltd. Hachioji, Japan) equipped with a peltier cuvette holder and temperature controller PFD425 L/15. The catalase concentration and path length of the cuvette used were 1 µM and 0.1 cm, respectively. The instrument parameters were set at scanning speed of 50 nm/min, bandwidth of 1.0 nm and sensitivity of 100 milli degree. The molar ellipticity values are expressed in terms of mean residue molar ellipticity, in units of deg. cm^2 dmol^−1.
CD allows investigation of the conformational changes that occur in a protein upon ligand binding. The CD spectra of catalase at pH 7.4 in the absence and in the presence of EGC, EC, ECG, EGCG, and 3-AT at 25°C are represented in Figure 5 (a – f). […] The negative band at 208 and 220 nm decreased in intensity with the addition of various catechins, which is indicative of the loss of α-helicity upon interaction. […] From the CD spectra, the effect of catechins on the secondary structure of catalase is in the following order: 3-AT>EGCG>ECG>EC>EGC.

[5] = biological target: T1, Catalase (from bovine liver); assay: Inhibition of pure catalase activity (cell free), H2O2 decay at 240 nm; format: biochemical; details: pure catalase, 50 µM each, 1 h incubation
Protocol: Absorption spectrophotometer (Varian, CARY 100 Bio, USA) was used to determine pure catalase activity (cell free). Briefly, 900 µl of H2O2 (0.036%) was taken in quartz cell of 1 cm path length and its absorbance was recorded at 240 nm. To the solution, 100 µl of catalase (50 U/ml) was added and the decrease in absorbance was recorded at 10 s interval. This experiment was performed in presence 50 µM each of four catechins and 3-AT separately to evaluate the inhibitory effect of catechins on catalase activity, after 1 h incubation.
On addition of catechins, a decrease in rate of H2O2 degradation i.e. a decrease in pure catalase activity was observed which is represented in Figure 6A. Catechins with galloyl moiety (ECG and EGCG) reduced catalase activity more than its non-gallated counterparts i.e. EGC and EC. However, Inhibition by EGCG is the closest to inhibition by known catalase inhibitor 3-AT.

K562 cells = assay: MTT cell viability assay; format: cell-based; details: Homo sapiens
Protocol: Cell viability of K562 cells was quantified by MTT based colorimetric assay as described elsewhere. Briefly, cells were rinsed with PBS and 0.5 mg/ml MTT was added into each sample. The mixture was incubated at 37°C for an additional 3 h. At the end of incubation period, the medium containing MTT was removed and the pellet was dissolved in 200 µl DMSO. Absorbance was measured at a wavelength of 570 nm. Cell viability was expressed as a percentage of the control culture.
The concentration (IC50) at which the K562 cell survivability was reduced to 50% was calculated for EGCG and 3-AT by MTT based cell viability assay.

catalase = details: cited from earlier work

| Compound | Kd [1] [µM] | ΔG [2] [kcal/mol] | ΔH [2] [kcal/mol] | ΔS [2] | Kd [2] [µM] | number of binding sites n [3] | Kd [3] [µM] | order of effect on the secondary structure of catalase (loss of α-helicity) [4] | order of inhibition of catalase activity [5] | binding to DHFR [1] | IC50 (K562 cells) [µM] | binding constant of catalase-microcystin complex (catalase) [M⁻¹] |
| --- | --- | --- | --- | --- | --- | --- | --- | --- | --- | --- | --- | --- |
| O=C(OC1Cc2c(O)cc(O)cc2OC1c1ccc(O)c(O)c1)c1cc(O)c(O)c(O)c1 (single isomer, unassigned; (-)) [ECG, (−)-epicatechin gallate] | 1.8 | -7.8 | -756 ± 30.2 | −2.60×10^3 cal/mol/K | 1.57 | single binding site | 0.602 | 3-AT>EGCG>ECG>EC>EGC | 3-AT>EGCG>ECG>EC>EGC | – | – | – |
| Oc1cc(O)c2c(c1)OC(c1cc(O)c(O)c(O)c1)C(O)C2 (single isomer, unassigned; (-)) [EGC, (−)-epigallocatechin] | – | -7.1 | -3.2e+06 ± 106000 | −1.07×10^7 cal/mol/K | 5.21 | single binding site | 12.7 | 3-AT>EGCG>ECG>EC>EGC | 3-AT>EGCG>ECG>EC>EGC | did not bind | – | – |
| Nc1nc[nH]n1 [3-AT, 3-amino-1,2,4-triazole, reference compound] | – | – | – | – | – | – | – | 3-AT>EGCG>ECG>EC>EGC | 3-AT>EGCG>ECG>EC>EGC | – | 10.5 | – |
| Oc1cc(O)c2c(c1)O[C@H](c1ccc(O)c(O)c1)[C@H](O)C2 [EC, (−)-epicatechin] | – | -7.17 | – | −2.40×10^7 cal/mol/K | 4.69 | single binding site | 9.26 | 3-AT>EGCG>ECG>EC>EGC | 3-AT>EGCG>ECG>EC>EGC | did not bind | – | – |
| microcystin | – | – | – | – | – | – | – | – | – | – | – | 61200 |
